Test results from BindingDB's records for doi:10.1021/acs.jmedchem.9b00881 (University of Auckland, 2020).

How the values were obtained:
[1] = Inhibition of perforin (unknown origin) assessed as reduction in perforin-mediated cell lysis in human Jurkat T cells incubated for 30 mins by 51Cr release based gamma counting method
[2] = Inhibition of perforin in human KHYG-1 cells pre-treated with compound for 20 mins assessed as reduction in KHYG-1 cells-mediated cell lysis of human K562 cells measured after 4 hrs by 51Cr release based gamma counting method

| Compound | IC50 [1] [µM] | IC50 [2] [µM] |
| --- | --- | --- |
| COc1ncc(-c2ccc(-c3cnc4c(c3)CN(C)C4=O)s2)cc1NS(=O)(=O)c1ccccc1C(F)(F)F | 0.78 | 2.21 |
| O=C1NCc2ncc(-c3ccc(-c4cncc(NS(=O)(=O)c5ccc(F)cc5F)c4)s3)cc21 | > 20 | 6.8 |
| O=C1c2ccc(-c3ccc(-c4cncc(NS(=O)(=O)c5ccc(F)cc5F)c4)s3)cc2CN1CC(O)CO (configuration not stated) | 14.2 | – |
| O=C1NCc2cc(-c3ccc(-c4cncc(NS(=O)(=O)c5ccc(F)cc5F)c4)s3)cnc21 | 5.73 | – |
| CN1Cc2cc(-c3ccc(-c4cncc(NS(=O)(=O)c5cccc(C(F)(F)F)c5)c4)s3)cnc2C1=O | > 20 | 3.4 |
| CN1Cc2cc(-c3ccc(-c4cncc(NS(=O)(=O)c5ccc(F)cc5F)c4)s3)cnc2C1=O | 4.3 | 7.5 |
| COc1ncc(-c2ccc(-c3cnc4c(c3)CN(C)C4=O)s2)cc1NS(=O)(=O)c1ccccc1[N+](=O)[O-] | 2.3 | 1.6 |
| CN1Cc2cc(-c3ccc(-c4cncc(NS(=O)(=O)c5ccccc5C(F)(F)F)c4)s3)cnc2C1=O | 1.38 | 3.3 |
| COc1ncc(-c2ccc(-c3cnc4c(c3)CN(C)C4=O)s2)cc1NS(=O)(=O)c1ccc(F)cc1F | 3.34 | 4.43 |

Second part, the compound after the results:

| IC50 [1] [µM] | IC50 [2] [µM] | Compound |
| --- | --- | --- |
| > 20 | – | O=C1c2ccc(-c3ccc(-c4cncc(NS(=O)(=O)c5ccc(F)cc5F)c4)s3)cc2CN1CCCO |
| > 20 | – | O=C1c2ccc(-c3ccc(-c4cncc(NS(=O)(=O)c5ccc(F)cc5F)c4)s3)cc2CN1CCN1CCCC1 |
| > 20 | – | O=C1c2ccc(-c3ccc(-c4cncc(NS(=O)(=O)c5ccc(F)cc5F)c4)s3)cc2CN1CCN1CCCCC1 |
| > 20 | – | CN1CCN(CCN2Cc3cc(-c4ccc(-c5cncc(NS(=O)(=O)c6ccc(F)cc6F)c5)s4)ccc3C2=O)CC1 |
| > 20 | – | CN(C)CCN1Cc2cc(-c3ccc(-c4cncc(NS(=O)(=O)c5ccc(F)cc5F)c4)s3)ccc2C1=O |
| 17 | – | O=C1c2ccc(-c3ccc(-c4cncc(NS(=O)(=O)c5ccc(F)cc5F)c4)s3)cc2CN1CCN1CCOCC1 |
